In patent US12343326B2, “Psychoactive medicines and their use for treating psychiatric and neurological conditions and disorders” (Transcend Therapeutics, Inc., priority 2021, dated 2025):

Legend:
Experiment in all cases: β-arrestin based GPCR screen (PathHunter / GPCRmax), agonist mode
Format in all cases: cell-based
Design in all cases: host or cells: PathHunter cell lines
168 GPCRs [1] = molecular target: 168 GPCRs (Homo sapiens, UniProt P32249)
Method: (§1) For agonist determination, cells were incubated with sample to induce response. […] Vehicle concentration was 1%.

168 GPCRs [2] = molecular target: 168 GPCRs (Homo sapiens, UniProt P25101); settings: EDNRA
Sequence of 168 GPCRs (Homo sapiens, UniProt P25101) (P25101 21-427): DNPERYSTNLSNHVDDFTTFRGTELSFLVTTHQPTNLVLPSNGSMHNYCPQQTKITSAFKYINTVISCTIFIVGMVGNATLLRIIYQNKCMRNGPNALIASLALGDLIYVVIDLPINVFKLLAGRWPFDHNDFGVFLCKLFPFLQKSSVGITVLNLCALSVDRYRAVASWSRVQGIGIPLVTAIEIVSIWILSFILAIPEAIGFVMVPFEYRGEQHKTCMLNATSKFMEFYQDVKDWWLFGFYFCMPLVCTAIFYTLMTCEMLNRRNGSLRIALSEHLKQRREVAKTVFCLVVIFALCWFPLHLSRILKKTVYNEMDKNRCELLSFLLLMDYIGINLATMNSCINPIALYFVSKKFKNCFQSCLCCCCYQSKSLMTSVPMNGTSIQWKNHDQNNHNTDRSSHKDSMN
Method: as §1

168 GPCRs [3] = molecular target: 168 GPCRs (Homo sapiens, UniProt P21462)
Sequence of 168 GPCRs (Homo sapiens, UniProt P21462) (P21462 whole entry): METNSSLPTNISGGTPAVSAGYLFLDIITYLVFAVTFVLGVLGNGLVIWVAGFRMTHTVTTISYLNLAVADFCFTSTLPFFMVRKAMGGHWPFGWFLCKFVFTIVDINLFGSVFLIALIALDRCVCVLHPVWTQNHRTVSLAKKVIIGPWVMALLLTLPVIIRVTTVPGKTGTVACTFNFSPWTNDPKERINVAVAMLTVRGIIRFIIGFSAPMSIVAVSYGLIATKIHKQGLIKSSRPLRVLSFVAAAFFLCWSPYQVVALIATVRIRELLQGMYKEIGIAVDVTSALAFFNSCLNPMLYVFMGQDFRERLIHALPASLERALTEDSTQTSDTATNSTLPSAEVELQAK
Method: as §1

168 GPCRs [4] = molecular target: 168 GPCRs (Homo sapiens, UniProt P25024)
Method: as §1

168 GPCRs [5] = molecular target: 168 GPCRs (Homo sapiens, UniProt P08908); settings: HTR1A
Method: as §1

168 GPCRs [6] = molecular target: 168 GPCRs (Homo sapiens, UniProt P32238); settings: CCKAR, Agonist
Sequence of 168 GPCRs (Homo sapiens, UniProt P32238) (P32238 whole entry): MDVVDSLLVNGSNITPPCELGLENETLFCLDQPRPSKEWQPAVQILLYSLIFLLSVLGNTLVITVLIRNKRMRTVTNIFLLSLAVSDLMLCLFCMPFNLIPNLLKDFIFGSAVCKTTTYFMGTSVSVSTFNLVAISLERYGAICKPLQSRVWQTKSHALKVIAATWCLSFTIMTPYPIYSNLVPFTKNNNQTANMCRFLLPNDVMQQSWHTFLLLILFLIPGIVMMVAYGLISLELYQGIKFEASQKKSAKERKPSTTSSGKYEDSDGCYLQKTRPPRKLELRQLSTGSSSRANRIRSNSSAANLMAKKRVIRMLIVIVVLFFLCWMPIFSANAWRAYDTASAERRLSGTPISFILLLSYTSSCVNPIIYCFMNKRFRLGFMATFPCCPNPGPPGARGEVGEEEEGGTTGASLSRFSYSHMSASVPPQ
Method: as §1

168 GPCRs [7] = molecular target: 168 GPCRs (Homo sapiens, UniProt Q9H244)
Sequence of 168 GPCRs (Homo sapiens, UniProt Q9H244) (Q9H244 whole entry): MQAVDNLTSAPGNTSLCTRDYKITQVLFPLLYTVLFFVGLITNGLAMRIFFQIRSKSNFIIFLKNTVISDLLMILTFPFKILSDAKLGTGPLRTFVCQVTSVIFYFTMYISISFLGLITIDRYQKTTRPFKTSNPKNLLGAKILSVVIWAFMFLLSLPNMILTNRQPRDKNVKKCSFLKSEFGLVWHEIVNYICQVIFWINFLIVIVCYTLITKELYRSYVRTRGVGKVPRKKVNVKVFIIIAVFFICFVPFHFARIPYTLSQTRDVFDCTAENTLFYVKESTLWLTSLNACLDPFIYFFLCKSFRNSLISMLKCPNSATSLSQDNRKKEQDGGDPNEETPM
Method: as §1

168 GPCRs [8] = molecular target: 168 GPCRs (Homo sapiens, UniProt P08913); settings: ADRA2A, Agonist
Sequence of 168 GPCRs (Homo sapiens, UniProt P08913) (P08913 whole entry): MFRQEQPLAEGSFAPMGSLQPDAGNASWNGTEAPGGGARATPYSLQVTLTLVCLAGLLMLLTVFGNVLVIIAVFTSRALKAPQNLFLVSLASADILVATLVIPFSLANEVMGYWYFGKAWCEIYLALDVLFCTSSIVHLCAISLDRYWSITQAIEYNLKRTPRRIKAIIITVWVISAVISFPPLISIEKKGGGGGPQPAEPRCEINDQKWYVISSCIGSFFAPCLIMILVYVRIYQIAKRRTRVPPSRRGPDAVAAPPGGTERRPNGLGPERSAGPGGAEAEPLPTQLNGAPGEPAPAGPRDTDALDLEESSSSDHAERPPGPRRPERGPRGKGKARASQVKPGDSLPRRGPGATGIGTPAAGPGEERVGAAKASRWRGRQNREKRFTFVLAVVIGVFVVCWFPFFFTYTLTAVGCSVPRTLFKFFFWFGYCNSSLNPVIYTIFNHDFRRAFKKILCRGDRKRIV
Method: as §1

168 GPCRs [9] = molecular target: 168 GPCRs (Homo sapiens, UniProt P41587)
Sequence of 168 GPCRs (Homo sapiens, UniProt P41587) (P41587 24-438): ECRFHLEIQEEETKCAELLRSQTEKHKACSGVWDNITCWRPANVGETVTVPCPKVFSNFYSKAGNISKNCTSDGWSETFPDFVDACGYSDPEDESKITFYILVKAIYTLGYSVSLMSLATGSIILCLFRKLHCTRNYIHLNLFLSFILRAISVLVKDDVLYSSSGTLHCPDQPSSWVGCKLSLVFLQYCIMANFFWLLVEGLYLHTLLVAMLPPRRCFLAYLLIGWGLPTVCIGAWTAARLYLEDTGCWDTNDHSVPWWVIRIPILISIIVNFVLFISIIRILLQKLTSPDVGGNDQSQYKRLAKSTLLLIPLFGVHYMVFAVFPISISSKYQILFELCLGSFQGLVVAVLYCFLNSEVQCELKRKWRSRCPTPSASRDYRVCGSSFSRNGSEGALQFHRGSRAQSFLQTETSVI
Method: as §1

168 GPCRs [10] = molecular target: 168 GPCRs (Homo sapiens, UniProt P08912); settings: CHRM5, Agonist
Method: as §1

168 GPCRs [11] = molecular target: 168 GPCRs (Homo sapiens, UniProt P32302)
Sequence of 168 GPCRs (Homo sapiens, UniProt P32302) (P32302 whole entry): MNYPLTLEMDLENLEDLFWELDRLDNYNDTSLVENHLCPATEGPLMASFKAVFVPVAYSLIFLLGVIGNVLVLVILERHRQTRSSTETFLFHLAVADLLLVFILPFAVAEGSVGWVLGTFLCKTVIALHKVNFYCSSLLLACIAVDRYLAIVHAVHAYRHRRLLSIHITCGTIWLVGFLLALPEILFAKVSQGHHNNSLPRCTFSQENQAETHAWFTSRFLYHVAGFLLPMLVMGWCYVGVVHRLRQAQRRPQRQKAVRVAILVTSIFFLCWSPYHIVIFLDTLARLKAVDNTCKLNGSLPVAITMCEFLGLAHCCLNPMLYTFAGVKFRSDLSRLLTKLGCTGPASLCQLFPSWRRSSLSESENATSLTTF
Method: as §1

168 GPCRs [12] = molecular target: 168 GPCRs (Homo sapiens, UniProt P32241)
Sequence of 168 GPCRs (Homo sapiens, UniProt P32241) (P32241 31-457): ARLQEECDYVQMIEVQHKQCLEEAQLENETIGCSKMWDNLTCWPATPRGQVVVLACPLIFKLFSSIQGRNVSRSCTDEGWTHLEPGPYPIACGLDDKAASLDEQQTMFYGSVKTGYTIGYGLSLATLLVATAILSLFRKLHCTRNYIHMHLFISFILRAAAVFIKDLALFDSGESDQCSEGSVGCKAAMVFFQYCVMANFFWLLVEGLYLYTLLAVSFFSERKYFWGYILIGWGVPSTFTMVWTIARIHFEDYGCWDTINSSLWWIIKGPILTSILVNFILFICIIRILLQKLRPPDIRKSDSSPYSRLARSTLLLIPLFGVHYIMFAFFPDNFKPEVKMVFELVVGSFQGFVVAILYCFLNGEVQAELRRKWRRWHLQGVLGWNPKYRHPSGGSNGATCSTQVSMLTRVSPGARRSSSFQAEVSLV
Method: as §1

168 GPCRs [13] = molecular target: 168 GPCRs (Homo sapiens, UniProt Q92847); settings: GHSR
Sequence of 168 GPCRs (Homo sapiens, UniProt Q92847) (Q92847 whole entry): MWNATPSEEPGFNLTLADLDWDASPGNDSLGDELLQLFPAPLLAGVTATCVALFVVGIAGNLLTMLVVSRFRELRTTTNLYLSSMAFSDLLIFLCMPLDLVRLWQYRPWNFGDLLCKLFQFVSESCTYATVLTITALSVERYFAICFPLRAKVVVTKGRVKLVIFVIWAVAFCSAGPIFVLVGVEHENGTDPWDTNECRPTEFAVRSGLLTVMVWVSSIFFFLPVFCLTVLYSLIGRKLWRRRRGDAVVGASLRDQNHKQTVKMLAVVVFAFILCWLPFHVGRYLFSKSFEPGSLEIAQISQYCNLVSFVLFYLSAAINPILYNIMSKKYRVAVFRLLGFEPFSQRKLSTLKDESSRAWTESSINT
Method: as §1

168 GPCRs [14] = molecular target: 168 GPCRs (Homo sapiens, UniProt P47901); settings: AVPR1B, Agonist
Sequence of 168 GPCRs (Homo sapiens, UniProt P47901) (P47901 whole entry): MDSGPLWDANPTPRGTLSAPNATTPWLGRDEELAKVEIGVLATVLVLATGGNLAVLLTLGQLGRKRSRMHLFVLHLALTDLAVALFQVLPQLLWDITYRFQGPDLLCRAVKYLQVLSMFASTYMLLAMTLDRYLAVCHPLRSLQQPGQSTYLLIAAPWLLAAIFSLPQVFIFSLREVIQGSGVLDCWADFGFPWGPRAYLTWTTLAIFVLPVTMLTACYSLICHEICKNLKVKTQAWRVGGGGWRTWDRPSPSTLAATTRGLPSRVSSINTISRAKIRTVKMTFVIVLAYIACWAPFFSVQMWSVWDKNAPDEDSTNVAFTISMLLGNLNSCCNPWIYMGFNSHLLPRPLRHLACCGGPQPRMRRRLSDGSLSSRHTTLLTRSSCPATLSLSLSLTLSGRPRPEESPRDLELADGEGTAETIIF
Method: as §1

168 GPCRs [15] = molecular target: T1, 168 GPCRs (Homo sapiens, UniProt P0DMS8); settings: ADORA3, Agonist
T1 sequence (P0DMS8 1-318): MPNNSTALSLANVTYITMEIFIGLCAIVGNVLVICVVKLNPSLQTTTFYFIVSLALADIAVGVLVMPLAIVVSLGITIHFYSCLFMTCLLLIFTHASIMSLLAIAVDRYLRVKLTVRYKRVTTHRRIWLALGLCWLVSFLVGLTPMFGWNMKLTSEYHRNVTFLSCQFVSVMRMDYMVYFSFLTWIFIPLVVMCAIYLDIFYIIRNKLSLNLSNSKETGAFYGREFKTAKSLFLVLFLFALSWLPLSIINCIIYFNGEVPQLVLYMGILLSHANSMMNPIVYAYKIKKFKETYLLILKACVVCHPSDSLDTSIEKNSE
Method: as §1

168 GPCRs [16] = molecular target: 168 GPCRs (Homo sapiens, UniProt Q03431)
Sequence of 168 GPCRs (Homo sapiens, UniProt Q03431) (Q03431 27-593): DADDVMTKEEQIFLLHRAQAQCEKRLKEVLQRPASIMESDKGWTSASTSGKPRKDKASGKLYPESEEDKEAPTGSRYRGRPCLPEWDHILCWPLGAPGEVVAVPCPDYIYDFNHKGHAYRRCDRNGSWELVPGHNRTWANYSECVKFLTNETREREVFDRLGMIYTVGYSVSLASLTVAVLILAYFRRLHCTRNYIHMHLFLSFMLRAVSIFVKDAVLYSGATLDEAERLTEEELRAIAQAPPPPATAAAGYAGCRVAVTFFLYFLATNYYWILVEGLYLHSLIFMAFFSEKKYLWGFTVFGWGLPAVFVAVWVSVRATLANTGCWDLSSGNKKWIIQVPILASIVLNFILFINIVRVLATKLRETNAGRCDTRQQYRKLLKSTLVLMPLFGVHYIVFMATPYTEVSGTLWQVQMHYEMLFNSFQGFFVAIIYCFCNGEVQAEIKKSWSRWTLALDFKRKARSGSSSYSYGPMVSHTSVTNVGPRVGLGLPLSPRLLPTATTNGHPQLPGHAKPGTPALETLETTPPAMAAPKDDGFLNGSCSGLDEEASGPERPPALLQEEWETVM
Method: as §1

168 GPCRs [17] = molecular target: T2, 168 GPCRs (Homo sapiens, UniProt P30939); settings: HTR1F
T2 sequence (P30939 1-366): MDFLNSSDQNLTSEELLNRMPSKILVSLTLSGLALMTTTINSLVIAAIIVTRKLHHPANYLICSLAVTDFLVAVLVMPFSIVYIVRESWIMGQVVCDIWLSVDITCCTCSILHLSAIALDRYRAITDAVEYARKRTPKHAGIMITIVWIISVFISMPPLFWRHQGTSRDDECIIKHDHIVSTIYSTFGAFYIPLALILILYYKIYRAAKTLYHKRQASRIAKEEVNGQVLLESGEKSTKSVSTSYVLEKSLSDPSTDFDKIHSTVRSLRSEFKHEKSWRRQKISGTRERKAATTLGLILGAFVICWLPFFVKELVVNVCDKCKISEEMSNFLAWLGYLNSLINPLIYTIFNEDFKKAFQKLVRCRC
Method: as §1

168 GPCRs [18] = molecular target: 168 GPCRs (Homo sapiens, UniProt P51677); settings: CCR3, Agonist
Sequence of 168 GPCRs (Homo sapiens, UniProt P51677) (P51677 whole entry): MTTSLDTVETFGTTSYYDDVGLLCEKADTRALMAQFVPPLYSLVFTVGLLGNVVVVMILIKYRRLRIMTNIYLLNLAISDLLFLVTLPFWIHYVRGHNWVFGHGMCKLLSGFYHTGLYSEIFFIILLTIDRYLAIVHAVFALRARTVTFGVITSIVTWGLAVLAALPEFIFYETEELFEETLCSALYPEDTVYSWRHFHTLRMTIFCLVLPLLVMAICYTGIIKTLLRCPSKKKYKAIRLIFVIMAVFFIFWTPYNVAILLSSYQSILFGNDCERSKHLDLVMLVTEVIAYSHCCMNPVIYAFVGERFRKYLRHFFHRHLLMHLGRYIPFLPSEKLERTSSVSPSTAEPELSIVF
Method: as §1

SMILES: CNC(C)C(=O)c1ccc2c(c1)OCO2 (stereo not drawn) [methylone, 3,4-methylenedioxy-N-methylcathinone]
- activity at 10 µM (168 GPCRs [1]; EBI2, Agonist mode, 10 uM): 0.1%
- activity at 1 µM (168 GPCRs [1]; EBI2, Agonist, 1 uM): 0.5%
- activity at 10 µM (168 GPCRs [2]; Agonist mode, 10 uM): 1.4%
- activity at 1 µM (168 GPCRs [2]; Agonist, 1 uM): 0.3%
- activity at 10 µM (168 GPCRs [3]; FPR1, Agonist mode, 10 uM): 0.5%
- activity at 1 µM (168 GPCRs [3]; FPR1, Agonist, 1 uM): 2.2%
- activity at 10 µM (168 GPCRs [4]; CXCR1, Agonist mode, 10 uM): 0.1%
- activity at 1 µM (168 GPCRs [4]; CXCR1, Agonist, 1 uM): -0.5%
- activity at 10 µM (168 GPCRs [5]; Agonist mode, 10 uM): -0.1%
- activity at 1 µM (168 GPCRs [5]; Agonist, 1 uM): 0.8%
- activity at 1 µM (168 GPCRs [6]; 1 uM): 0.1%
- activity at 10 µM (168 GPCRs [6]; 10 uM): 0.3%
- activity at 10 µM (168 GPCRs [7]; P2RY12, Agonist mode, 10 uM): -2.5%
- activity at 1 µM (168 GPCRs [7]; P2RY12, Agonist, 1 uM): -1.5%
- activity at 1 µM (168 GPCRs [8]; 1 uM): -3.8%
- activity at 10 µM (168 GPCRs [8]; 10 uM): -3.8%
- activity at 10 µM (168 GPCRs [9]; VIPR2, Agonist mode, 10 uM): -0.3%
- activity at 1 µM (168 GPCRs [9]; VIPR2, Agonist, 1 uM): -0.4%
- activity at 1 µM (168 GPCRs [10]; 1 uM): 7.2%
- activity at 10 µM (168 GPCRs [10]; 10 uM): 8.7%
- activity at 10 µM (168 GPCRs [11]; CXCR5, Agonist mode, 10 uM): 1.4%
- activity at 1 µM (168 GPCRs [11]; CXCR5, Agonist, 1 uM): 2.5%
- activity at 10 µM (168 GPCRs [12]; VIPR1, Agonist mode, 10 uM): 0.6%
- activity at 1 µM (168 GPCRs [12]; VIPR1, Agonist, 1 uM): 0.3%
- activity at 10 µM (168 GPCRs [13]; Agonist mode, 10 uM): -7.2%
- activity at 1 µM (168 GPCRs [13]; Agonist, 1 uM): -6.6%
- activity at 1 µM (168 GPCRs [14]; 1 uM): -1.2%
- activity at 10 µM (168 GPCRs [14]; 10 uM): -1.1%
- activity at 1 µM (168 GPCRs [15]; 1 uM): -4.5%
- activity at 10 µM (168 GPCRs [15]; 10 uM): -5.3%
- activity at 10 µM (168 GPCRs [16]; PTHR1, Agonist mode, 10 uM): 0.1%
- activity at 1 µM (168 GPCRs [16]; PTHR1, Agonist, 1 uM): 0%
- activity at 10 µM (168 GPCRs [17]; Agonist mode, 10 uM): -3%
- activity at 1 µM (168 GPCRs [17]; Agonist, 1 uM): -4.4%
- activity at 1 µM (168 GPCRs [18]; 1 uM): -6.7%
- activity at 10 µM (168 GPCRs [18]; 10 uM): -7.6%
